Results: patent EP0896002A1, “CHIMERIC PROTEINS, HETERODIMER COMPLEXES THEREOF AND SUBSTITUTE FOR PLATELET” (TORAY INDUSTRIES, INC., priority 1997, dated 1998)
Like-named read-outs stand apart in the source and are kept apart here.

Molecular target: T1, α4·IgG heavy chain-β1·IgG heavy chain chimeric protein heterodimer complex (integrin α4β1; sequence Nos. 1 and 2) (Homo sapiens, UniProt P05556+P13612)
T1 construct: made in house; culture supernatant used in the assay
Experiment: Inhibition of the binding of the α4·IgG heavy chain-β1·IgG heavy chain chimeric protein heterodimer complex to solid-phase CS-1-IgG (peptide fragment of fibronectin), ELISA-type detection at 490 nm
Conditions: for inhibition at 100 µg/mL: compound concentration 100 μg/ml; for inhibition at 100 µg/mL / inhibition at 50 µg/mL: read-out: Inhibition rate (%); for IC50: binding assay system of Example 9: binding to CS-1-IgG, cyclic phage-library peptides, read-out: Inhibitory activity IC50
Method: At first, according to the said report (Humphries, M. J. et al., J. Biol. Chem., 262, 6886-6892 (1987)), the peptide fragment of sequence No. 3 (CS-1 peptide) was bound to rabbit IgG (Sigma), to prepare CS-1-IgG. The CS-1-IgG was diluted by PBS(-), and put in a 96-well immunoplate (NUNC) by 100 µl/well, and allowed to stand at 4°C for 16 hours, to be formed as a solid phase on the plate.
After completion of standing, the surface of the plate was washed with PBS(-) twice and treated with denatured 1% BSA(heat-natured at 80°C for 10 minutes)-PBS solution ( 300 µl/well) at 4°C for 3 hours to block the nonspecific reaction. Then, the solid phase CS-1-IgG and the CHO culture supernatant (100 µl) containing α4·IgG heavy chain-β1·IgG heavy chain chimeric protein heterodimer complex were reacted with each other at 30°C for 3 hours. The non-bound α4·IgG heavy chain-β1·IgG heavy chain chimeric protein heterodimer complex was removed by washing with 0.1% BSA-containing TBS buffer (150 mM NaCl, 25 mM Tris-HCl, 1 mM MnCl2, pH 7.4) twice, and the bound α4·IgG heavy chain-β1·IgG heavy chain chimeric protein heterodimer complex was detected by biotin labeled anti-human IgG antibody (Vector) as the primary antibody and avidin labeled horseradish peroxidase (Sigma) as the secondary antibody. The surface of the plate was washed with the TBS buffer. Orthophenylenediamine was added as a substrate to it for color development, and the absorbance at 490 nm were measured.
The all peptides were synthesized by a peptide synthesizer. The peptide and 100 µl of CHO cultured supernatant solution containing αα4·IgG heavy chain-β1·IgG heavy chain chimeric protein heterodimer complex were mixed at room temperature for 20 minutes, and the binding to CS-1-IgG was determined according to the method in Example 9.
At first, α4·IgG heavy chain-β1·IgG heavy chain chimeric protein heterodimer complex purified in Example 6, or human IgG was prepared at a proper concentration by PBS (-) and was coated on a plastic plate at 4°C for 16 hours, being formed as a solid phase on a plastic plate. Then, according to a report (Cott, J. K. and Smoth, G. P., Science, 249, 386-390 (1990)), a phage peptide library in which a random six amino acid residues were cyclyzed by the disulfide bond of cysteine at both the ends was prepared and suspended in 0.1% BSA-containing TBS buffer. The phage peptide library was reacted with human IgG at 30°C for 3 hours, to absorb phage peptides capable of being bound to IgG. Then, the non-absorbed phases were reacted with α4·IgG heavy chain-β1·IgG heavy chain chimeric protein heterodimer complex at 30°C for 3 hours, and the reaction mixture was washed with 0.1% BSA-containing TBS buffer twice to remove the phage peptides incapable of being bound to the heterodimer complex. Only the phage peptides capable of being bound were collected after elution with 0.1M glycine-hydrochloric acid (pH 2.2). After collection, the phage was amplified and the above mentioned binding operation was repeated further twice. The only the phage peptides capable of being bound to the heterodimer complex were selectively concentrated. In the final elution operation, phage peptides capable of being bound to the heterodimer complex were eluted using 10 mM EDTA and 0.1M glycine-hydrochloric acid in two steps, and the amino acid sequences of the respective peptides were analyzed. Furthermore, they were examined using the binding assay system of Example 9, and the IC50 values of the four peptide sequences showing binding inhibitory activity are shown in Table 1.
Reagents and reported compounds were picked up at random, adjusted to a final concentration of 50 or 100 µg/ml, and added to the binding determination system in Example 9. Compounds showing inhibitory activity were obtained. […]

[1] = binding determination system of Example 9 (CS-1-IgG)

T1 sequence (P13612 35-977 limits assumed, change not shown): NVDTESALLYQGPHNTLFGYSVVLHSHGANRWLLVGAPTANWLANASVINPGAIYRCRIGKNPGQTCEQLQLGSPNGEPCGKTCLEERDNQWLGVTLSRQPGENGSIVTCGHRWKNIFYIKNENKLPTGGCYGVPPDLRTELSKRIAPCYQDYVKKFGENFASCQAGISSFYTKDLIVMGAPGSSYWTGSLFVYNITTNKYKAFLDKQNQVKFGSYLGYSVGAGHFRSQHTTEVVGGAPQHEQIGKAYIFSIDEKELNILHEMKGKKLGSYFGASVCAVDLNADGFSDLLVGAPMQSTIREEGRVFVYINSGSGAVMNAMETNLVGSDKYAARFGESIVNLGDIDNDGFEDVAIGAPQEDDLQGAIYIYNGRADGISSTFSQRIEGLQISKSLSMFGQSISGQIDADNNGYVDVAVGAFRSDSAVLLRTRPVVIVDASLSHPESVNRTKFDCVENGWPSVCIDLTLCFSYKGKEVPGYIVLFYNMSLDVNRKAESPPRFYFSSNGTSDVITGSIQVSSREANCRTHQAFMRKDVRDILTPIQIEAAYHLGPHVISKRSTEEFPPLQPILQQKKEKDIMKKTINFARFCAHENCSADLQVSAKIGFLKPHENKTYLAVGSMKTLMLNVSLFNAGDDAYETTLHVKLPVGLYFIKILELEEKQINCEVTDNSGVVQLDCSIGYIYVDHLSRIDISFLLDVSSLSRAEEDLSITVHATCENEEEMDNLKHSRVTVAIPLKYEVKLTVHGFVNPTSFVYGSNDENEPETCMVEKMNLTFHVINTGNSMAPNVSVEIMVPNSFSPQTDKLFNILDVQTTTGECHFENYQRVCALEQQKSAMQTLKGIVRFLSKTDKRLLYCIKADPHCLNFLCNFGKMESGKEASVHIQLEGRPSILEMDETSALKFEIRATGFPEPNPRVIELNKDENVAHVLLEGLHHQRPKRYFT
T1 sequence (P05556 21-728 limits assumed, change not shown): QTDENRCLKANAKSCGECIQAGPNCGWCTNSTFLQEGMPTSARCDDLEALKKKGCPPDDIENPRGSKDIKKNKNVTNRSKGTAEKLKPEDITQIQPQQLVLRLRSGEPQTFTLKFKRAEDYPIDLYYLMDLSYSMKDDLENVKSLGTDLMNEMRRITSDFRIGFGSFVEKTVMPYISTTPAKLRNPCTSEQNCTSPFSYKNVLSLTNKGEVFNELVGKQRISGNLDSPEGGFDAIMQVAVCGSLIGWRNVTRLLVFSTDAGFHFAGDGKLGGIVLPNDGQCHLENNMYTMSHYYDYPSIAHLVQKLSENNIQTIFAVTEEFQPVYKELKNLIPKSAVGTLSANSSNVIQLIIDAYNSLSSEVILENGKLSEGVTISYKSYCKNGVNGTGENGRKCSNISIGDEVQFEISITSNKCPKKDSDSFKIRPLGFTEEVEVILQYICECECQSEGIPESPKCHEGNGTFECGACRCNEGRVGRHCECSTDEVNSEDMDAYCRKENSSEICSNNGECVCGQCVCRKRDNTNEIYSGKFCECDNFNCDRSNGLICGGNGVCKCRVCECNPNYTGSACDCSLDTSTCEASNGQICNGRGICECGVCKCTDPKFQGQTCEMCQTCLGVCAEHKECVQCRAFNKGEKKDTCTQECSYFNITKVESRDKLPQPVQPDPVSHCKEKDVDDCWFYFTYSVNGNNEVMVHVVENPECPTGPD
T1 sequence (P01857 99-330 partner limits assumed): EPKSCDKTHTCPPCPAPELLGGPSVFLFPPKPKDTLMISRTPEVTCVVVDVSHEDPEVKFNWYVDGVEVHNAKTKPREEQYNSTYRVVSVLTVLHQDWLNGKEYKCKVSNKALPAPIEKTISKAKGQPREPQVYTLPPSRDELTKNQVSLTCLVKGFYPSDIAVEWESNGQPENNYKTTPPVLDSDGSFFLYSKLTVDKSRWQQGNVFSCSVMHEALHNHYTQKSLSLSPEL

In the case of `O=C(O)CC12CC3CC(CC(C3)C1)C2` [1-Adamantaneacetic acid], the inhibition at 100 µg/mL [1] is reported as 65%.
Compound `CC(C)(S)[C@@H](N)C(=O)O` [D-Penicillamine] has an inhibition at 50 µg/mL of 51%.
Work on `C#C[C@]1(O)CC[C@H]2[C@@H]3CCC4=C(CCC(=O)C4)[C@H]3CC[C@@]21C` [Norethynodrel] yielded an inhibition at 50 µg/mL (compound concentration 50 μg/ml, binding determination system of Example 9 (CS-1-IgG)) of 28%.
`O=C(O)CCCc1ccc2ccccc2c1` [γ-2-Naphtyl butyric acid, γ-2-Naphthyl butyric acid] showed an inhibition at 100 µg/mL [1] of 37%.
With “Cys* Gly Leu Gln Ala Leu Pro Cys* (GLQALPC; printed: Gly Leu Gln Ala Leu Pro Cys) [Sequence No. 30]” the IC50 was 10000 nM.
“Cys* Ile Pro Glu Leu Ile Val Cys* (IPELIVC; printed: Ile Pro Glu Leu Ile Val Cys) [Sequence No. 24]” was tested, and the IC50 was 1200 nM.
With “Cys* Leu Arg Tyr Ser Val Pro Cys* (LRYSVPC; printed: Leu Arg Tyr Ser Val Pro Cys) [Sequence No. 28]” the IC50 was 1800 nM.
Work on “Cys* Met Arg Tyr Thr Ser Ala Cys* (MRYTSAC; printed: Met Arg Tyr Thr Ser Ala Cys) [Sequence No. 25]” yielded an IC50 of 2300 nM.
